# According to ChEMBL document CHEMBL3045446, “In vitro antimicrobial and antimycobacterial activity of some chalcones and their derivatives” (2013):
# Assays:
# Type in all cases: functional
# [1] = tested on: Mycobacterium tuberculosis; experiment: Antituberculosis activity against Mycobacterium tuberculosis H37Rv assessed as growth inhibition after 12 to 28 days by L-J MIC method; details: for MIC: Mycobacterium tuberculosis, H37Rv
# Candida albicans [2] = experiment: Antimicrobial activity against Candida albicans MTCC 183 assessed as growth inhibition after 48 hr by agar streak dilution method; details: MTCC 183, 48 h
# Aspergillus clavatus [3] = experiment: Antimicrobial activity against Aspergillus clavatus MTCC 1323 assessed as growth inhibition after 48 hr by agar streak dilution method; details: MTCC 1323, 48 h
# Aspergillus fumigatus [4] = experiment: Antimicrobial activity against Aspergillus fumigatus MTCC 343 assessed as growth inhibition after 48 hr by agar streak dilution method; details: MTCC 343, 48 h
# Aspergillus niger [5] = experiment: Antimicrobial activity against Aspergillus niger MTCC 282 assessed as growth inhibition after 48 hr by agar streak dilution method; details: MTCC 282, 48 h
# Shigella flexneri [6] = experiment: Antimicrobial activity against Shigella flexneri MTCC1457 assessed as growth inhibition after 24 hr by agar streak dilution method; details: MTCC1457, 24 h
# Proteus vulgaris [7] = experiment: Antimicrobial activity against Proteus vulgaris MTCC 1771 assessed as growth inhibition after 24 hr by agar streak dilution method; details: MTCC 1771, 24 h
# Salmonella typhi [8] = experiment: Antimicrobial activity against Salmonella enterica subsp. enterica serovar Typhi MTCC 733 assessed as growth inhibition after 24 hr by agar streak dilution method; details: MTCC 733, 24 h
# Klebsiella pneumoniae [9] = experiment: Antimicrobial activity against Klebsiella pneumoniae MTCC 109 assessed as growth inhibition after 24 hr by agar streak dilution method; details: MTCC 109, 24 h
# Pseudomonas aeruginosa [10] = experiment: Antimicrobial activity against Pseudomonas aeruginosa MTCC 741 assessed as growth inhibition after 24 hr by agar streak dilution method; details: MTCC 741, 24 h
# Escherichia coli [11] = experiment: Antimicrobial activity against Escherichia coli MTCC 739 assessed as growth inhibition after 24 hr by agar streak dilution method; details: MTCC 739, 24 h
# Bacillus cereus [12] = experiment: Antimicrobial activity against Bacillus cereus MTCC 430 assessed as growth inhibition after 24 hr by agar streak dilution method; details: MTCC 430, 24 h
# Staphylococcus aureus [13] = experiment: Antimicrobial activity against Staphylococcus aureus MTCC 96 assessed as growth inhibition after 24 hr by agar streak dilution method; details: MTCC 96, 24 h
# Candida albicans [14] = experiment: Antimicrobial activity against Candida albicans MTCC 183 assessed as diameter of growth inhibition zone after 48 hr; also: test concentration or dose not given here
# Aspergillus clavatus [15] = experiment: Antimicrobial activity against Aspergillus clavatus MTCC 1323 assessed as diameter of growth inhibition zone after 48 hr; also: test concentration or dose not given here
# Aspergillus fumigatus [16] = experiment: Antimicrobial activity against Aspergillus fumigatus MTCC 343 assessed as diameter of growth inhibition zone after 48 hr; also: test concentration or dose not given here
# Aspergillus niger [17] = experiment: Antimicrobial activity against Aspergillus niger MTCC 282 assessed as diameter of growth inhibition zone after 48 hr; also: test concentration or dose not given here
# Shigella flexneri [18] = experiment: Antimicrobial activity against Shigella flexneri MTCC1457 assessed as diameter of growth inhibition zone after 24 hr
# Proteus vulgaris [19] = experiment: Antimicrobial activity against Proteus vulgaris MTCC 1771 assessed as diameter of growth inhibition zone after 24 hr
# Salmonella typhi [20] = experiment: Antimicrobial activity against Salmonella enterica subsp. enterica serovar Typhi MTCC 733 assessed as diameter of growth inhibition zone after 24 hr
# Klebsiella pneumoniae [21] = experiment: Antimicrobial activity against Klebsiella pneumoniae MTCC 109 assessed as diameter of growth inhibition zone after 24 hr; also: test concentration or dose not given here
# Pseudomonas aeruginosa [22] = experiment: Antimicrobial activity against Pseudomonas aeruginosa MTCC 741 assessed as diameter of growth inhibition zone after 24 hr
# Escherichia coli [23] = experiment: Antimicrobial activity against Escherichia coli MTCC 739 assessed as diameter of growth inhibition zone after 24 hr; also: test concentration or dose not given here
# Bacillus cereus [24] = experiment: Antimicrobial activity against Bacillus cereus MTCC 430 assessed as diameter of growth inhibition zone after 24 hr; also: test concentration or dose not given here
# Staphylococcus aureus [25] = experiment: Antimicrobial activity against Staphylococcus aureus MTCC 96 assessed as diameter of growth inhibition zone after 24 hr; also: test concentration or dose not given here
Compound,growth inhibition (GI) [1],MIC [1],MIC (Candida albicans [2]),MIC (Aspergillus clavatus [3]),MIC (Aspergillus fumigatus [4]),MIC (Aspergillus niger [5]),MIC (Shigella flexneri [6]),MIC (Proteus vulgaris [7]),MIC (Salmonella typhi [8]),MIC (Klebsiella pneumoniae [9]),MIC (Pseudomonas aeruginosa [10]),MIC (Escherichia coli [11]),MIC (Bacillus cereus [12]),MIC (Staphylococcus aureus [13]),diameter of the inhibition zone (DIZ) (Candida albicans [14]),diameter of the inhibition zone (DIZ) (Aspergillus clavatus [15]),diameter of the inhibition zone (DIZ) (Aspergillus fumigatus [16]),diameter of the inhibition zone (DIZ) (Aspergillus niger [17]),diameter of the inhibition zone (DIZ) (Shigella flexneri [18]),diameter of the inhibition zone (DIZ) (Proteus vulgaris [19]),further results
CC(=O)N1N=C(c2ccc(Nc3cc(=O)oc4ccccc34)cc2)CC1c1ccc(C)cc1 (centres undefined),98%,200 µg/mL,100 µg/mL,100 µg/mL,100 µg/mL,50 µg/mL,50 µg/mL,50 µg/mL,100 µg/mL,100 µg/mL,100 µg/mL,100 µg/mL,100 µg/mL,100 µg/mL,14 mm,11 mm,15 mm,19 mm,20 mm,20 mm,diameter of the inhibition zone (DIZ) (Salmonella typhi [20]): 14 mm; diameter of the inhibition zone (DIZ) (Klebsiella pneumoniae [21]): 13 mm; diameter of the inhibition zone (DIZ) (Pseudomonas aeruginosa [22]): 16 mm; diameter of the inhibition zone (DIZ) (Escherichia coli [23]): 12 mm; diameter of the inhibition zone (DIZ) (Bacillus cereus [24]): 16 mm; diameter of the inhibition zone (DIZ) (Staphylococcus aureus [25]): 16 mm
COc1ccc(-c2cc(-c3ccc(Nc4cc(=O)oc5ccccc45)cc3)nc(N)n2)cc1OC,98%,50 µg/mL,6.25 µg/mL,12.5 µg/mL,12.5 µg/mL,6.25 µg/mL,12.5 µg/mL,25 µg/mL,12.5 µg/mL,12.5 µg/mL,12.5 µg/mL,6.25 µg/mL,12.5 µg/mL,6.25 µg/mL,26 mm,23 mm,25 mm,27 mm,24 mm,21 mm,diameter of the inhibition zone (DIZ) (Salmonella typhi [20]): 22 mm; diameter of the inhibition zone (DIZ) (Klebsiella pneumoniae [21]): 23 mm; diameter of the inhibition zone (DIZ) (Pseudomonas aeruginosa [22]): 23 mm; diameter of the inhibition zone (DIZ) (Escherichia coli [23]): 25 mm; diameter of the inhibition zone (DIZ) (Bacillus cereus [24]): 20 mm; diameter of the inhibition zone (DIZ) (Staphylococcus aureus [25]): 27 mm
Nc1nc(-c2ccccc2)cc(-c2ccc(Nc3cc(=O)oc4ccccc34)cc2)n1,95%,500 µg/mL,50 µg/mL,25 µg/mL,50 µg/mL,50 µg/mL,100 µg/mL,100 µg/mL,50 µg/mL,100 µg/mL,100 µg/mL,100 µg/mL,100 µg/mL,100 µg/mL,17 mm,21 mm,19 mm,17 mm,14 mm,15 mm,diameter of the inhibition zone (DIZ) (Salmonella typhi [20]): 17 mm; diameter of the inhibition zone (DIZ) (Klebsiella pneumoniae [21]): 15 mm; diameter of the inhibition zone (DIZ) (Pseudomonas aeruginosa [22]): 12 mm; diameter of the inhibition zone (DIZ) (Escherichia coli [23]): 14 mm; diameter of the inhibition zone (DIZ) (Bacillus cereus [24]): 15 mm; diameter of the inhibition zone (DIZ) (Staphylococcus aureus [25]): 13 mm
Nc1nc(-c2ccc(Nc3cc(=O)oc4ccccc34)cc2)cc(-c2ccc(Cl)cc2Cl)n1,98%,200 µg/mL,25 µg/mL,50 µg/mL,12.5 µg/mL,25 µg/mL,25 µg/mL,6.25 µg/mL,25 µg/mL,25 µg/mL,25 µg/mL,50 µg/mL,12.5 µg/mL,12.5 µg/mL,21 mm,19 mm,22 mm,20 mm,21 mm,25 mm,diameter of the inhibition zone (DIZ) (Salmonella typhi [20]): 20 mm; diameter of the inhibition zone (DIZ) (Klebsiella pneumoniae [21]): 21 mm; diameter of the inhibition zone (DIZ) (Pseudomonas aeruginosa [22]): 22 mm; diameter of the inhibition zone (DIZ) (Escherichia coli [23]): 19 mm; diameter of the inhibition zone (DIZ) (Bacillus cereus [24]): 22 mm; diameter of the inhibition zone (DIZ) (Staphylococcus aureus [25]): 24 mm
